Results as given in PMC10119423, “From PERK to RIPK1: Design, synthesis and evaluation of novel potent and selective necroptosis inhibitors” (Frontiers in Chemistry, 2023).
Read-outs that look alike come from different tables or passages of the source.

Assays:
RIPK1 = target: T1, RIPK1 (Mus musculus, UniProt Q60855); assay: RIPK1 autophosphorylation (pS166) by Western blot in MEFs stimulated with hTNF + TAK1i + zVAD.fmk; assay type: cell-based; conditions: immortalised MEFs, 30 min pretreatment with zVAD.fmk 50 μM, TAK1i 1 μM and compound, hTNF 20 ng/ml for 2.5 h, read-out: RIPK1 inhibition (IC50 estimated from a Western blot)
T1 construct: endogenous in cells; host or cells: immortalized mouse embryonic fibroblasts (MEFs, C57Bl6/J)
T1 sequence (Q60855 1-656): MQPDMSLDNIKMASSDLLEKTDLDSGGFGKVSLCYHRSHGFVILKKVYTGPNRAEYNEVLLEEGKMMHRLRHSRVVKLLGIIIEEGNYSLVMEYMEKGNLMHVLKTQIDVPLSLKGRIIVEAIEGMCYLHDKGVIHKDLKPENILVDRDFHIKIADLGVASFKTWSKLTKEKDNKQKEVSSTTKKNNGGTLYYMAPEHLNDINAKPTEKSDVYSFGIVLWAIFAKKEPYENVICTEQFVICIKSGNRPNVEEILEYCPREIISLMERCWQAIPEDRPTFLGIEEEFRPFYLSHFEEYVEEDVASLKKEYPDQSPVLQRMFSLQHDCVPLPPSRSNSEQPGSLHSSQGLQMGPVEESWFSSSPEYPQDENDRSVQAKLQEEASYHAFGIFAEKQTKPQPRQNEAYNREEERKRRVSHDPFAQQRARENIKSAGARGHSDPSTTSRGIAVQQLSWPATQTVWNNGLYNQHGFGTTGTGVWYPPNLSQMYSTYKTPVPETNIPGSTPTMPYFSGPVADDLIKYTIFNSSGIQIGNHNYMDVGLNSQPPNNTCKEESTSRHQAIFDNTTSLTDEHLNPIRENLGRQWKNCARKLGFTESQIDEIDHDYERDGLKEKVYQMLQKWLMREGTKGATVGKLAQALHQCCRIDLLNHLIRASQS
Method: (§1) MEFs were seeded in 6-well plates at a density of 300.000 cells/well in 2 mL. The next day, the cells were suspended in 1 mL of medium and pre-treated for 30 min with the indicated compounds at 1/5 dilutions series for PERK ranging from 5 to 0.04 µM and 1 μg/mL of Tm followed by 4 h treatment with 20 ng/mL of hTNF. For RIPK1, the cells were pre-treated at 1/10 dilutions series ranging from 10 to 0.01 nM, 50 µM zVAD.fmk and 1 µM TAKi before stimulation with 20 ng/mL of hTNF for 2.5 h. Then, the cells were washed two times with 1 mL of ice-cold PBS before lysis in 0.2 mL of Laemmli buffer 1x (10% (w/v) SDS, 50% glycerol, 0.5% bromophenol blue, 250 mM Tris–HCl pH 6.8) and 250 mM of dithiothreitol (DTT). The cell lysate was then collected and boiled at 95 °C for 10min and stored at −20°C. Proteins expression was later monitored by immunoblotting.
Activation of PERK was induced by stimulation of the cells with Tunicamycin, as previsouly reported ([Bull and Thiede, 2012]). More precisely, the immortalised MEFs were pre-incubated for 30 min with the analogues 18–34 at different concentrations (0.04, 0.2, 1, and 5 µM) prior to 4 h stimulation with Tunicamycin (1 μg/mL). […] Their activities were evaluated by comparing the intensity of the signal to unstimulated MEFs (considered as zero phosphorylation) and Tunicamycin stimulated cells (considered as 100% PERK phosphorylation). The 12 compounds (18–20, 22–29 and 34) that had lost their inhibitory capacity on PERK were then tested for their ability to inhibit RIPK1 as shown in Figures 6A–H. Activation and autophosphorylation of RIPK1 was induced by stimulating the cells with TNF in the presence of TAK1 inhibitor and of the pan-caspases inhibitor zVAD.fmk, a well established necroptotic trigger ([Vanlangenakker et al., 2011]). The MEFs were pre-incubated for 30 min with the different compounds (0.01 nM–1000 nM) and then stimulated with human TNF (20 ng/mL) for 2.5 h. Similar to the PERK assessment, IC50 values for RIPK1 inhibition were estimated as a range of concentrations, and are reported in Table 1. These experiments provide an estimation of the specificity of our analogues against PERK and RIPK1 in comparison to the benchmark GSK’157 already reported as a potent PERK and RIPK1 inhibitor.

PERK = target: T2, PERK (Mus musculus, UniProt Q9Z2B5); assay: PERK autophosphorylation by Western blot in tunicamycin-stimulated immortalized MEFs; assay type: cell-based; conditions: immortalized MEFs, 30 min pretreatment, tunicamycin 1 μg/ml for 4 h; PERK autophosphorylation; read-out: PERK inhibition (IC50 estimated from a Western blot)
T2 construct: Immortalized MEFs were pretreated for 30 min with increasing concentrations of GSK’157 and the indicated compounds and stimulated with tunicamycin; endogenous in cells; host or cells: immortalized mouse embryonic fibroblasts (MEFs, C57Bl6/J)
T2 sequence (Q9Z2B5 29-1114): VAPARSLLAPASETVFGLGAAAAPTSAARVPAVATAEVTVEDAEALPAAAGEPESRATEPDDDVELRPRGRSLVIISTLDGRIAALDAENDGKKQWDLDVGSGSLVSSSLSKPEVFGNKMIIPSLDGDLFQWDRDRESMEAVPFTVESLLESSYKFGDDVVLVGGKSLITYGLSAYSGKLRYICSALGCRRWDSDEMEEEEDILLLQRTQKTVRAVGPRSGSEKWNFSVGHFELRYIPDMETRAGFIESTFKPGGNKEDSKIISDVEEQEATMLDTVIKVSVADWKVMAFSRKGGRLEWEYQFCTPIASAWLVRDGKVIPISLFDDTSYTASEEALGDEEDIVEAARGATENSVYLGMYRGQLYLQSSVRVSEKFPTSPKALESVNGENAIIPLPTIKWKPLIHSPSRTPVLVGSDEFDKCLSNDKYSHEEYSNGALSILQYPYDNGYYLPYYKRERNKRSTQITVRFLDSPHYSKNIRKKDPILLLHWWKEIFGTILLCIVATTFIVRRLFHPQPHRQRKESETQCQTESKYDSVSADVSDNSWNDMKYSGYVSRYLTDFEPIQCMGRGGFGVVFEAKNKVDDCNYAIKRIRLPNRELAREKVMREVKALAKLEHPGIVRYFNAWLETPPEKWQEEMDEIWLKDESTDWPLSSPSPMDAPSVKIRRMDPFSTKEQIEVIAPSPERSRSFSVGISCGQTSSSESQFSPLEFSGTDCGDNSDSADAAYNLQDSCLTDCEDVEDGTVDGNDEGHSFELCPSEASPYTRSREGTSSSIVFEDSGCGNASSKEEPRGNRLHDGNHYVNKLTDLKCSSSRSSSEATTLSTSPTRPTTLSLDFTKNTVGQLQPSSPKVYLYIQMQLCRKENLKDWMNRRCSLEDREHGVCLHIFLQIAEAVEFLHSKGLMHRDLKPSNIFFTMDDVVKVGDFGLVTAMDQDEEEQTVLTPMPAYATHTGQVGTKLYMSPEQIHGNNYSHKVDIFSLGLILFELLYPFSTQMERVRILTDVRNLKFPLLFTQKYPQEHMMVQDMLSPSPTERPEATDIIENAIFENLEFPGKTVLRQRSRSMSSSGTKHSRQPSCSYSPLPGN
Method: as §1
Their activities were evaluated by comparing the intensity of the signal to unstimulated MEFs (considered as zero phosphorylation) and Tunicamycin stimulated cells (considered as 100% PERK phosphorylation). […] The MEFs were pre-incubated for 30 min with the different compounds (0.01 nM–1000 nM) and then stimulated with human TNF (20 ng/mL) for 2.5 h. Similar to the PERK assessment, IC50 values for RIPK1 inhibition were estimated as a range of concentrations, and are reported in Table 1.

immortalized MEFs = assay: RIPK1 kinase-dependent necroptosis (hTNF + zVAD.fmk) in MEFs, Sytox Green; assay type: cell-based, mouse; conditions: for IC50: Mus musculus; for necroptosis inhibition (in words): mouse cells (MEFs), RIPK1-dependent necroptosis;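 on all read-outs here: cell death taken as background-corrected Sytox Green fluorescence relative to the maximal signal of cells fully permeabilized with 0.1% Triton X-100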
Method: In brief, the cells were seeded in duplicate at 10,000 cells per well in a 96-well adherent plate and incubated overnight at 37°C with 5% CO2. […] All the compound stock solutions were prepared in DMSO at 200 µM concentration. After stimulating the cells with human TNF at 20 ng/mL the plate was transferred to the incubator. […] The cell death was calculated by subtracting the background fluorescence from the induced Sytox Green fluorescence and by dividing the obtained result by the maximal fluorescence (minus the background fluorescence) obtained by permeabilization of the cells by using Triton X-100 at a final concentration of 0.1%. Curves were plotted in GraphPad 9 for the IC50 calculation.
Consequently, the compounds were evaluated for their potential protection of RIPK1-mediated necroptosis following human TNF stimulation.

MEFs = assay: RIPK1 kinase-dependent apoptosis (hTNF + TAK1i) in MEFs, Sytox Green; assay type: cell-based; conditions: Mus musculus, TAK1i + hTNF (100 pg/mL)
Text: In MEFs, TNF together with the pan caspases inhibitor zVAD.fmk induces RIPK1-dependent necroptosis while TNF together with TAK1 inhibitor induces RIPK1 kinase-dependent apoptosis. We also included the conditions selected for the Western blot experiments, where necroptosis was induced by the combination of hTNF, zVAD.fmk and TAK1 inhibitor.

HT-29 = assay: Necroptosis (hTNF + TAK1i + zVAD.fmk) in HT-29 cells, Sytox Green; conditions: Homo sapiens, HT-29, read-out: Necroptosis hTNF + TAK1i + zVAD.fmk HT-29 IC50
Method: In brief, the cells were seeded in duplicate at 10,000 cells per well in a 96-well adherent plate and incubated overnight at 37°C with 5% CO2. […] All the compound stock solutions were prepared in DMSO at 200 µM concentration. After stimulating the cells with human TNF at 20 ng/mL the plate was transferred to the incubator. Sytox Green intensity was measured in function of time at 0, 14 and 24 h with an excitation filter of 485 nm, an emission filter of 520 nm. The cell death was calculated by subtracting the background fluorescence from the induced Sytox Green fluorescence and by dividing the obtained result by the maximal fluorescence (minus the background fluorescence) obtained by permeabilization of the cells by using Triton X-100 at a final concentration of 0.1%. Curves were plotted in GraphPad 9 for the IC50 calculation.
To induce necroptosis in human colorectal adenocarcinoma cell line (HT-29) together with hTNF and the pan caspases inhibitor zVAD.fmk, TAK1 inhibitor is also needed.

300 kinases = test system: 300 kinases; design: method as in Axten et al., 2013; conditions: 10 µM, out of 300 kinases; ref Axten et al., 2013; cited from earlier work
panel of 294 kinases = test system: panel of 294 kinases; design: method as in Axten et al., 2012; conditions: 10 µM, ref Axten et al., 2012; cited from earlier work
[1] = 24 h, immortalized MEFs, zVAD-fmk 50 μM + hTNF 20 ng/ml, Sytox Green at 24 h, Table 1 series, read-out: IC50 necroptosis
[2] = 24 h, MEFs, hTNF + zVAD.fmk (20 ng/mL), Table 2, read-out: Necroptosis hTNF + zVAD.fmk MEFs IC50
[3] = MEFs, hTNF + zVAD.fmk, read-out: IC50 necroptosis inhibition

| Structure (SMILES) | IC50 (RIPK1) [nM] | IC50 (PERK) [nM] | IC50 (immortalized MEFs; [1]) [nM] | other results |
| --- | --- | --- | --- | --- |
| Cc1ccc(CC(=O)N2CCc3c2ccc(-c2cn(C)c4ncnc(N)c24)c3F)cc1 [Compound 33] | ≥ 10 | 1000 to 5000 | > 10000 | necroptosis inhibition (in words) (immortalized MEFs): complete loss of necroptosis inhibition |
| Cn1cc(-c2ccc3c(c2F)CCN3C(=O)Cc2ccc(C3CC3)cn2)c2c(N)ncnc21 [Compound 24] | ≥ 10 | > 5000 | 33.5 |  |
| Cn1cc(-c2ccc3c(c2F)CCN3C(=O)Cc2ccc(Cl)cc2)c2c(N)ncnc21 [Compound 31] | 0.1 to 1 | 1000 to 5000 | 0.4 |  |
| Cn1cc(-c2ccc3c(c2F)CCN3C(=O)Cc2ccc(Br)cn2)c2c(N)ncnc21 [Compound 20] | 1 to 10 | > 5000 | 3.2 |  |
| Cc1ccc(CC(=O)N2CCc3c2ccc(-c2cn(C)c4ncnc(N)c24)c3F)nc1 [Compound 21] | ≥ 10 | 1000 to 5000 | 37 |  |
| Cc1cccc(CC(=O)N2CCc3c2ccc(-c2cn(C)c4ncnc(N)c24)c3F)n1 [Compound 10, reference compound] | 0.1 to 1 |  |  | IC50 (MEFs): 3.7 nM; IC50 (HT-29): 3.1 nM; number of kinases inhibited with more than 80% (300 kinases): 17; IC50 (immortalized MEFs; 24 h, read-out: IC50 necroptosis): 0.42 nM; IC50 (immortalized MEFs; [2]): 0.7 nM |
| Cn1cc(-c2ccc3c(c2F)CCN3C(=O)Cc2ccncc2)c2c(N)ncnc21 [Compound 27] | ≥ 10 | > 5000 | 3020 | IC50 (immortalized MEFs; [3]): > 2000 nM |
| Cn1cc(-c2ccc3c(c2F)CCN3C(=O)Cc2ccc(C(C)(C)C)cn2)c2c(N)ncnc21 [Compound 25] | ≥ 10 | > 5000 | 40 |  |
| Cn1cc(-c2ccc3c(c2F)CCN3C(=O)Cc2ccc(Br)cc2)c2c(N)ncnc21 [Compound 32] | 1 to 10 | 1000 to 5000 | 0.3 |  |
| Cn1cc(-c2ccc3c(c2F)CCN3C(=O)Cc2ccc(F)cc2)c2c(N)ncnc21 [Compound 30] | 0.1 to 1 | 1000 to 5000 | 0.01 | fold higher potency than GSK’157 (necroptosis IC50) (immortalized MEFs; MEFs, hTNF + zVAD.fmk): 40 fold |
| Cn1cc(-c2ccc3c(c2F)CCN3C(=O)Cc2ccc(Cl)cn2)c2c(N)ncnc21 [Compound 19] | 1 to 10 | > 5000 | 2.5 |  |
| Cn1cc(-c2ccc3c(c2F)CCN3C(=O)Cc2ccc(Cc3ccccc3)cn2)c2c(N)ncnc21 [Compound 28] | ≥ 10 | ≥ 5000 | 62 |  |
| CN1C(=O)[C@@H](NC(=O)c2n[nH]c(Cc3ccccc3)n2)COc2ccccc21 [GSK’772, reference compound] |  |  |  | IC50 (MEFs): > 100 nM; IC50 (HT-29): 0.2 nM; IC50 (immortalized MEFs; [2]): > 100 nM; necroptosis inhibition (in words) (immortalized MEFs): no activity |
| Cn1cc(-c2ccc3c(c2)CCN3C(=O)Cc2cccc(C(F)(F)F)c2)c2c(N)ncnc21 [GSK’414, 7-methyl-5-(1-{[3-(trifluoromethyl)phenyl]acetyl}-2,3-dihydro-1H-indol-5-yl)-7H-pyrrolo[2,3-d]pyrimidin-4-amine] |  |  |  | number of kinases inhibited with more than 85% (panel of 294 kinases): 20 |
| COc1ccc(CC(=O)N2CCc3c2ccc(-c2cn(C)c4ncnc(N)c24)c3F)nc1 [Compound 23] | ≥ 10 | ≥ 5000 | 39 |  |
| Cn1cc(-c2ccc3c(c2F)CCN3C(=O)Cc2ccc(-c3ccccc3)cn2)c2c(N)ncnc21 [Compound 29] | ≥ 10 | > 5000 | > 10000 |  |
| Cn1cc(-c2ccc3c(c2F)CCN3C(=O)Cc2ccc(C(F)(F)F)cc2)c2c(N)ncnc21 [Compound 34] | 1 to 10 | ≥ 5000 | 1.1 |  |
| Cn1cc(-c2ccc3c(c2F)CCN3C(=O)Cc2ccc(O)cn2)c2c(N)ncnc21 [Compound 26] | ≥ 10 | ≥ 5000 | 2530 | IC50 (immortalized MEFs; [3]): > 2000 nM |
| Cn1cc(-c2ccc3c(c2F)CCN3C(=O)Cc2ccc(F)cn2)c2c(N)ncnc21 [Compound 18] | ≥ 10 | > 5000 | 13.5 |  |
